Among the data in ChEMBL document CHEMBL1132003, “2-chloro-3-substituted-1,4-naphthoquinone inactivators of human cytomegalovirus protease” (Bioorg Med Chem Lett, 1999) are IC50 and inhibition values, retold here.

One test addresses T1, Neutrophil elastase (Homo sapiens, UniProt P08246).
T1 sequence (P08246 whole entry): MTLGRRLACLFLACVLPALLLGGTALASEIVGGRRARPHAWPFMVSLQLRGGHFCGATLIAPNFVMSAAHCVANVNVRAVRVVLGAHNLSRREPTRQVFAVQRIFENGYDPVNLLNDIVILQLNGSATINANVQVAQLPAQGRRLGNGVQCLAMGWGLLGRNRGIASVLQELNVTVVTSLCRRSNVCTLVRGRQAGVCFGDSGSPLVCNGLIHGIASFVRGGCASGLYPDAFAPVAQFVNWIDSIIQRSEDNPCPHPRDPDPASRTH
The test is described as follows: Inhibitory activity against human Elastase […].

The subject of test [1] is HCMV protease (assemblin, Human betaherpesvirus 5). The test is described as follows: Inhibitory activity against HCMV protease by SPA assay at 150 uM concentration.
Test [2] concerns MRC5. The test can be described thus: Inhibitory activity against HCMV in a plaque assay(strain in MRC-5 cells). The format is functional, cell-based. Conditions: Homo sapiens.
Test [3] has as its system MRC5. The test is described as follows: Inhibitory activity against HCMV protease in a plaque assay (strain AD169 in MRC-5 cells). The format is functional, cell-based. The conditions noted are these: Homo sapiens.

The IC50 is the concentration needed to halve the response being measured. Low readings indicate greater potency in that assay, high ones weaker potency in that assay. Molecule `CC(=O)C(C(=O)OCc1ccccc1)C1=C(Cl)C(=O)c2ccccc2C1=O` (centres undefined) came in with an IC50 on Neutrophil elastase of 30 µM. For orientation: inhibition means the change of the read-out against control, counted positive when it falls. High values mean a strong effect, low ones a weak effect. The molecule `CC1(C)CC(=O)C(C2=C(O)C(=O)c3ccccc3C2=O)C(=O)C1` returned an inhibition in test [1] of 11%. `CC(=O)C(C(=O)OC(C)C)C1=C(Cl)C(=O)c2ccccc2C1=O` (centres undefined) yielded an IC50 in the test on MRC5 [2] of 13 µM.

In the test with MRC5 [3], `CCOC(=O)C(C(C)=O)C1=C(Cl)C(=O)c2ccccc2C1=O` (centres undefined) showed an IC50 of 10 µM.
